Measurements reported in patent publication US9512111B2, “N-sulfonylated tetrahydroquinolines and related bicyclic compounds for inhibition of RORγ activity and the treatment of disease” (Lycera Corporation, priority 2010, dated 2016).
Like-named read-outs stand apart in the source and are kept apart here.

Columns and labels:
[1] = molecular target: T1, RORγt (Homo sapiens, UniProt P51449); experiment: RORγ Reporter Assay (GAL4-UAS luciferase reporter in HEK293 cells); assay type: cell-based
T1 construct: The resulting GAL4-RORγt-LBD fusion construct was placed under the control of a constitutive cytomegalovirus (CMV) promoter; expressed in transfected cells; host or cells: HEK293
T1 sequence (P51449 269-508 limits assumed): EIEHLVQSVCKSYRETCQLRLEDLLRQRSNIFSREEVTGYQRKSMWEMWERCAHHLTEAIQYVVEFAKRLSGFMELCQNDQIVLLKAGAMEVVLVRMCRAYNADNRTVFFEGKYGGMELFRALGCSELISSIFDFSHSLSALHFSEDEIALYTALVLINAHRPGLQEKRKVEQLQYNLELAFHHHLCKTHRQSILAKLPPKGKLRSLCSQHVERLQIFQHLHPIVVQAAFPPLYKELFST
Experimental: Inhibition of RORγt in cells was determined using a GAL4-UAS reporter system in HEK293 cells employing a luciferase readout. The RORγt DNA binding domain (DBD) was replaced with the heterologous yeast GAL4 DBD using standard recombinant DNA methods. The resulting GAL4-RORγt-LBD fusion construct was placed under the control of a constitutive cytomegalovirus (CMV) promoter by cloning it into the CMV-driven mammalian expression vector pcDNA3.1+− (Promega Corporation, Madison, Wis.).
A transcriptional reporter expression construct was used to monitor GAL4-RORγ activity, which contained five copies of the GAL4 binding site enhancer (UAS) controlling expression of a firefly luciferase reporter. This construct, pGL4.31, is commercially available from Promega Corporation, Madison Wis. Both expression constructs were transfected in bulk into HEK-293 cells using standard lipid-based transfection techniques, which allowed the GAL4 RORγ-LBD fusion protein to drive expression of the luciferase reporter. Control transfections were performed with an empty pCDN3.1+ vector.
The next day, cells were plated into 384 well plates, test compound was added, and the plates were incubated overnight. […] Promega firefly assays kits were used to stabilize the luciferase signal, and the intensity of the luciferase signal was measured using an EnVision Multilabel Plate Reader (Perkin Elmer, Waltham, Mass.).
HEK 293 cells are transfected with GAL4-NR construct (CMV:NR-LBD in pcDNA3.1neo) and the pGL4.31 GAL4-luciferase reporter construct (Promega). For a background control, use empty pcDNA3.1neo and pGL4.31. Transfection protocol is for a single T75 flask performed with Minis Trans-It 293 reagent. A 60 μL aliquot of Trans-IT reagent at room temperature is added drop wise to 1.5 mL of Optimem (Invitrogen). The resulting solution is mixed by inversion and incubated for 5-20 minutes at room temperature. This reagent mixture is added to 10 μg of DNA (5 μg of each expression vector used at a concentration of 1 mg/mL). The solution is mixed by inversion and incubated at room temperature for 20 minutes.
While the Trans-IT reagent and DNA are incubating, harvest HEK-293 cells. Remove media from flasks via aspiration and add enough TrypLE Express (stable Trypsin-like reagent, Invitrogen) to cover the bottom of the flask. The mixture is incubated at room temperature until the cells are visibly loose in the flask (approximately 2-5 minutes). Add an equal volume of complete growth media, and then pipette to achieve a single cell suspension. Spin down 1×10^7 cells and re-suspend the cells in 10 mL of complete growth media (DMEM high glucose/10% dialyzed FBS/pen/strep; Invitrogen). The cells and transfection mixture are added to one T75 flask. The contents of the T75 flax are mixed and incubated overnight at 37° C. and 5% CO2.
After 16-24 hours, cells are harvested and plated for test compound screening. Cells may be harvested as described above. Next, cells are counted and an appropriate number of cells are spun down. Then, cells are aspirated and re-suspended in complete growth media at a concentration of 0.5×10^6 cells/mL to provide a cell suspension. Plate 20 μL of the cell suspension into a white, tissue-culture treated 384 well plate. (10,000 cells/well).
A 10 mM stock solution of test compound in dimethylsulfoxide (DMSO) was diluted to 500× the final test concentration in DMSO, then diluted to 5× the final test concentration with complete growth medium to provide the Test Compound Solution. The concentration of DMSO in the Test Compound Solution was […]. A 5 μL aliquot of Test Compound Solution was added to each test well in the 384 well plate previously plated with the cell suspension. Next, plates are spun briefly and incubated overnight at 37° C. and 5% CO2.
After 16-24 hours, the luciferase assay is performed. Plates and luciferase reagent (e.g. One-Glo® or Dual Glo®; Promega, Madison, Wis.) are brought to room temperature.

[2] = molecular target: T2, RORγ-LBD (Homo sapiens, UniProt P51449); experiment: RORγ-Ligand Binding Domain TR-FRET Assay; assay type: biochemical; details: benzoxazines, Table 9
T2 construct: HIS-tagged RORγ-LBD was recombinantly expressed in SF9 cells; made in house; host or cells: SF9 cells (baculovirus); unpurified lysate
T2 sequence (P51449 269-508 limits assumed): T1 sequence (P51449 269-508 limits assumed)
Summary of the method: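 IC50 derived from the 665 nm/615 nm emission ratio after 4 h to overnight incubation. Mixture: Sf9 lysate with His-tagged LBD (~10 nM final, not purified), SRC1-2 LXXLL biotin peptide at 450 nM, 2 nM europium anti-His antibody, 60 nM APC-streptavidin; buffer 25 mM HEPES pH 7.0, 100 mM NaCl, 0.01% Tween, 0.1% BSA.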

[3] = benzoxazines, Table 9, HEK cells
[4] = Table 7, tetrahydroquinolines, HEK293 cells, read-out: RORγ HEK IC50

Row | Structure (SMILES) | IC50 [1, 3] [µM] | IC50 [2] [µM] | IC50 [1, 4] [µM]
1 | Cc1cc2c(cc1NC(=O)c1c(F)cccc1Cl)N(S(=O)(=O)c1ccc(F)cc1)CCC2 [Compound 6, 2-Chloro-6-fluoro-N-[1-(4-fluorobenzenesulfonyl)-6-methyl-1,2,3,4-tetrahydroquinolin-7-yl]benzamide] | – | – | < 15
2 | O=C(Nc1ccc2c(c1)N(S(=O)(=O)c1ccc(Cl)cc1)C[C@@H](CO)O2)c1c(Cl)cccc1Cl [VI-52] | < 15 | < 15 | –
3 | CCOCC1CN(S(=O)(=O)c2ccc(Cl)cc2)c2cc(NC(=O)c3c(F)cccc3F)ccc2O1 (stereo not drawn) [VI-94] | < 15 | < 15 | –
4 | O=C(Nc1cc2c(cc1F)O[C@@H](CO)CN2S(=O)(=O)c1ccc(F)cc1)c1c(Cl)cccc1C(F)(F)F [VI-41] | < 15 | < 15 | –
5 | Cc1nn(C(F)F)cc1S(=O)(=O)N1C[C@H](C)Oc2ccc(NC(=O)c3c(Cl)cccc3Cl)cc21 [VI-9] | < 15 | < 15 | –
6 | O=C(Nc1c(F)cccc1Cl)c1ccc2c(c1)N(S(=O)(=O)c1ccc(F)cc1)CCO2 [VI-127] | < 15 | – | –
7 | COc1ccc(S(=O)(=O)N2C[C@H](CO)Oc3ccc(NC(=O)c4c(F)cccc4C(F)(F)F)cc32)cn1 [VI-25] | < 15 | < 15 | –
8 | O=C(Nc1ccc2c(c1)N(S(=O)(=O)c1ccc(Cl)cc1)C[C@H](CO)O2)c1c(Cl)cccc1Cl [VI-85] | < 15 | < 15 | –
9 | O=C(Nc1ccc2c(c1)N(S(=O)(=O)c1ccc(F)cc1)CC(C(F)(F)F)O2)c1c(Cl)cccc1Cl (stereo not drawn) [VI-107] | < 15 | < 15 | –
10 | O=C(Nc1ccc2c(c1)N(S(=O)(=O)c1ccc(F)cc1)C[C@@H](CO)O2)c1c(Cl)cccc1C(F)(F)F [VI-122] | < 15 | < 15 | –
11 | CCOCC1CN(S(=O)(=O)c2ccc(Cl)cc2)c2cc(NC(=O)c3c(Cl)cccc3C(F)(F)F)ccc2O1 (stereo not drawn) [VI-90] | < 15 | < 15 | –
12 | COCC1CN(S(=O)(=O)c2ccc(Cl)cc2)c2cc(NC(=O)c3c(F)cccc3Cl)ccc2O1 (stereo not drawn) [VI-96] | < 15 | < 15 | –
13 | CCOCC1CN(S(=O)(=O)c2ccc(F)c(F)c2)c2cc(NC(=O)c3c(F)cccc3Cl)ccc2O1 (stereo not drawn) [VI-89] | < 15 | < 15 | –
14 | CC(C)OCC1CN(S(=O)(=O)c2ccc(F)cc2)c2cc(NC(=O)c3c(F)cccc3Cl)ccc2O1 (stereo not drawn) [VI-121] | < 15 | < 15 | –
15 | COCC1CN(S(=O)(=O)c2ccc(F)cc2)c2cc(NC(=O)c3c(F)cccc3Cl)ccc2O1 (stereo not drawn) [VI-119] | < 15 | < 15 | –
16 | CCN(CC)CC1CN(S(=O)(=O)c2ccc(F)cc2)c2cc(NC(=O)c3c(F)cccc3Cl)ccc2O1 (stereo not drawn) [VI-38] | < 15 | < 15 | –
17 | O=C(Nc1ccc2c(c1)N(S(=O)(=O)c1ccc(Cl)cc1)CCC2)c1c(F)cccc1Cl [Compound 5, 2-Chloro-N-[1-(4-chlorobenzenesulfonyl)-1,2,3,4-tetrahydroquinolin-7-yl]-6-fluorobenzamide] | – | – | < 15
18 | O=C(Nc1c(Cl)cccc1Cl)c1ccc2c(c1)N(S(=O)(=O)c1ccc(F)cc1)CCO2 [VI-126] | < 15 | – | –
19 | O=C(Nc1ccccc1Cl)c1ccc2c(c1)N(S(=O)(=O)c1ccc(F)cc1)CCO2 [VI-128] | < 15 | – | –

Next, values leading:

Row | IC50 [1, 3] [µM] | IC50 [2] [µM] | IC50 [1, 4] [µM] | Structure (SMILES)
20 | < 15 | < 15 | – | CC(C)OCC1CN(S(=O)(=O)c2ccc(F)cc2)c2cc(NC(=O)c3c(F)cccc3F)ccc2O1 (stereo not drawn) [VI-115]
21 | < 15 | < 15 | – | CCOCC1CN(S(=O)(=O)c2ccc(F)cc2)c2cc(NC(=O)c3c(F)cccc3Cl)ccc2O1 (stereo not drawn) [VI-118]
22 | < 15 | < 15 | – | O=C(Nc1ccc2c(c1)N(S(=O)(=O)c1ccc(F)cc1)C[C@H](CF)O2)c1c(F)cccc1Cl [Compound 22, (R)-2-Chloro-6-fluoro-N-(2-(fluoromethyl)-4-((4-fluorophenyl)sulfonyl)-3,4-dihydro-2H-benzo[b][1,4]oxazin-6-yl)benzamide]
23 | < 15 | < 15 | – | CC(C)NCC1CN(S(=O)(=O)c2ccc(F)cc2)c2cc(NC(=O)c3c(F)cccc3Cl)ccc2O1 (stereo not drawn) [VI-35]
24 | < 15 | < 15 | – | O=C(Nc1ccc2c(c1)N(S(=O)(=O)c1ccc(F)cc1)C[C@@H](CO)O2)c1c(Cl)cccc1Cl [VI-106]
25 | < 15 | < 15 | – | CCOCC1CN(S(=O)(=O)c2ccc(F)cc2)c2cc(NC(=O)c3c(F)cccc3F)ccc2O1 (stereo not drawn) [VI-112]
26 | < 15 | < 15 | – | COCC1CN(S(=O)(=O)c2ccc(F)c(F)c2)c2cc(NC(=O)Cc3ccc(F)cc3)ccc2O1 (stereo not drawn) [VI-78]
27 | < 15 | < 15 | – | Cc1nn(C(F)F)cc1S(=O)(=O)N1C[C@H](C)Oc2ccc(NC(=O)c3c(F)cccc3F)cc21 [VI-8]
28 | < 15 | < 15 | – | O=C(Nc1ccc2c(c1)N(S(=O)(=O)c1ccc(Cl)cc1)C[C@H](CO)O2)c1c(Cl)cccc1C(F)(F)F [VI-84]
29 | < 15 | < 15 | – | COCC1CN(S(=O)(=O)c2ccc(Cl)cc2)c2cc(NC(=O)c3c(F)cccc3F)ccc2O1 (stereo not drawn) [VI-97]
30 | < 15 | < 15 | – | N#Cc1cccc(S(=O)(=O)N2C[C@H](CO)Oc3ccc(NC(=O)c4c(F)cccc4Cl)cc32)c1 [Compound 20, (R)-2-Chloro-N-(4-((3-cyanophenyl)sulfonyl)-2-(hydroxymethyl)-3,4-dihydro-2H-benzo[b][1,4]oxazin-6-yl)-6-fluorobenzamide]
31 | < 15 | < 15 | – | O=C(Nc1ccc2c(c1)N(S(=O)(=O)c1ccc(F)c(F)c1)C[C@H](CO)O2)c1c(F)cccc1Cl [VI-42]
32 | < 15 | < 15 | – | CCOCC1CN(S(=O)(=O)c2ccc(F)c(F)c2)c2cc(NC(=O)c3c(Cl)cccc3C(F)(F)F)ccc2O1 (stereo not drawn) [VI-88]
33 | < 15 | < 15 | – | O=C(Nc1ccc2c(c1)N(S(=O)(=O)c1ccc(F)cc1)C[C@@H](CO)O2)c1c(F)cccc1Cl [VI-116]
34 | < 15 | < 15 | – | O=C(Nc1ccc2c(c1)N(S(=O)(=O)c1ccc(F)c(F)c1)C[C@@H](CO)O2)c1c(F)cccc1C(F)(F)F [VI-72]
35 | < 15 | < 15 | – | Cc1nn(C(F)F)cc1S(=O)(=O)N1C[C@H](CO)Oc2ccc(NC(=O)c3c(Cl)cccc3C(F)(F)F)cc21 [VI-29]
36 | < 15 | < 15 | – | CCOCC1CN(S(=O)(=O)c2ccc(F)c(F)c2)c2cc(NC(=O)c3c(F)cccc3F)ccc2O1 (stereo not drawn) [VI-99]
37 | < 15 | < 15 | – | CC1(C)CN(S(=O)(=O)c2ccc(F)cc2)c2cc(NC(=O)c3c(F)cccc3Cl)ccc2O1 [Compound 16, 2-Chloro-6-fluoro-N-(4-((4-fluorophenyl)sulfonyl)-2,2-dimethyl-3,4-dihydro-2H-benzo[b][1,4]oxazin-6-yl)benzamide]
